Reference: patent US10028961B2, “Therapeutically active compounds and their methods of use” (AGIOS PHARMACEUTICALS, INC., priority 2013, dated 2018)
Where two headings read alike, the source gives them in different places.

Experiments:
[1] = molecular target: IDH1 wt/IDH1 R132H heterodimer (Homo sapiens (Human), UniProt O75874, R132H); experiment: In vitro assay for IDH1m R132H inhibitors, IDH1 wt/IDH1 R132H heterodimer, NADPH depletion (diaphorase/resazurin); assay type: biochemical
In short: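 Read-out is NADPH left after α-KG reduction to 2-HG, measured via resorufin fluorescence after 5 min diaphorase/resazurin step at 25° C. Enzyme is sf9-expressed IDH1wt-his/IDH1R132H-flag heterodimer, pre-incubated 1 hr at room temperature with compound and cofactor. IC50s from DMSO stocks diluted 1:50.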

IDH2 R140Q = IDH2 R140Q (Homo sapiens (Human), UniProt P48735, R140Q); experiment: In vitro assay for IDH2m R140Q inhibitors, cofactor depletion assay; assay type: biochemical; details: IDH2 R140Q enzyme
In short: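 Remaining cofactor measured fluorimetrically: diaphorase/resazurin Stop Mix […], halting the reaction. Before that, mutant enzyme and compound sat 1 h at RT, then substrate mix (4 μM NADPH, 1.6 mM α-KG) was added for 16 h at RT.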

HT1080 cells = experiment: Cellular assay for IDH1m R132C inhibitors, 2-HG by LC-MS in HT1080 cells; assay type: cell-based; details: Homo sapiens, HT-1080
In short: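 2-HG levels were measured by LC-MS in culture medium sampled 48 h after compound addition (0.2% DMSO) to HT1080 cells seeded overnight at 5000 cells/well. A CellTiter-Glo luminescence read at 72 h gave cell viability.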

[2] = IDH1 wt/R132H heterodimer, NADPH/NADP, not saturated, read-out: IDH1 wt/R132H NADPH/NADP IC50 not saturated
[3] = IDH1 wt/IDH1 R132H heterodimer, 300 μM NADP (saturated), read-out: IDH1 wt/R132H NADPH/NADP IC50 saturated

Chain of IDH2 R140Q (P48735 40-452 R140Q): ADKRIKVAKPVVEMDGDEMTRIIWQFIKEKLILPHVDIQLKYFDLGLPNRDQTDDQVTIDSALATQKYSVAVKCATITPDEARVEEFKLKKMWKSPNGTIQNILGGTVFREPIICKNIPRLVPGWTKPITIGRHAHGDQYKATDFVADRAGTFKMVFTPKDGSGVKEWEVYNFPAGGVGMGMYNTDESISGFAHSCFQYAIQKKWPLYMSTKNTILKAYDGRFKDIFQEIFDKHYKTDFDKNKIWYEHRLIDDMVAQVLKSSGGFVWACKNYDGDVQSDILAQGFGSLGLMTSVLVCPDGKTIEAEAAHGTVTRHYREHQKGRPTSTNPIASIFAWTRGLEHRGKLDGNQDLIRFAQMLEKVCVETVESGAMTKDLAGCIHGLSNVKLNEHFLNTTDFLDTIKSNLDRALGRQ
Chain of IDH1 wt/IDH1 R132H heterodimer (O75874 whole entry R132H): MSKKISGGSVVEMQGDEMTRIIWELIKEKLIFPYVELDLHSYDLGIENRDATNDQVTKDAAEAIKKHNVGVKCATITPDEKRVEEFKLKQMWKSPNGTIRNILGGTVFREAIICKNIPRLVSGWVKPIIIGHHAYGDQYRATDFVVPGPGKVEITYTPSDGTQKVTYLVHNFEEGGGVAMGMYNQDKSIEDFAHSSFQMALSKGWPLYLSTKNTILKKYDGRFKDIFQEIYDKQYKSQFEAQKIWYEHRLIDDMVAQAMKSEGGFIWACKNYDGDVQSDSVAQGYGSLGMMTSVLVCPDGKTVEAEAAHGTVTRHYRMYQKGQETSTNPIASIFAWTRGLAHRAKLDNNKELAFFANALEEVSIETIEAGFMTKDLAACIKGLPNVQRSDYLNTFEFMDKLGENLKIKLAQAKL
Chain of IDH1 wt/IDH1 R132H heterodimer (O75874 whole entry, stated change not applied): as the sequence (O75874 whole entry R132H) above, with H132R counted along it

SMILES | IC50 [1, 2] [nM] | IC50 (IDH2 R140Q) [nM] | IC50 (HT1080 cells) [nM] | IC50 [1, 3] [nM]
N#CC1(c2cc(Nc3nc(NC4CCC(F)(F)C4)nc(-c4nccc(C(F)(F)F)n4)n3)ccn2)CC1 (stereo not drawn) [Compound 261] | 100 to 1000 | < 50 | – | –
FC1(F)CCC(Nc2nc(Nc3ccnc(C(F)(F)F)c3)nc(-c3cccc(C(F)(F)F)n3)n2)CC1 [Compound 192] | < 50 | < 50 | 100 to 1000 | –
CC(C)(C#N)Nc1nc(Nc2ccnc(C(C)(F)F)c2)nc(-c2cccc(C(F)(F)F)n2)n1 [Compound 247] | 50 to 100 | < 50 | – | –
FC1(F)CCC(Nc2nc(NC3CCC(F)(F)CC3)nc(-c3csc(C(F)(F)F)n3)n2)CC1 [Compound 223] | < 50 | < 50 | – | –
N#Cc1cc(F)cc(Nc2nc(NC3CCC(F)(F)CC3)nc(-c3cccc(C(F)(F)F)n3)n2)c1 [Compound 164] | < 50 | < 50 | – | –
C[C@@H](Nc1nc(N[C@H](C)C2CC2)nc(-n2ccc(C(F)(F)F)n2)n1)C1CC1 [Compound 121] | < 50 | < 50 | < 50 | –
CC(C)(CC#N)Nc1nc(Nc2ccnc(C(C)(F)F)c2)nc(-c2cccc(C(F)(F)F)n2)n1 [Compound 231] | < 50 | < 50 | > 1000 | –
Fc1ccc([C@H]2C[C@@H](Nc3nc(N[C@H]4C[C@@H](c5ccc(F)cc5)C4)nc(-c4cccc(C(F)(F)F)n4)n3)C2)cc1 [Compound 272] | 100 to 1000 | 100 to 1000 | 100 to 1000 | –
N#Cc1cc(F)cc(Nc2nc(NC3CCC(F)(F)C3)nc(-c3cccc(C(F)(F)F)n3)n2)c1 (stereo not drawn) [Compound 124] | < 50 | < 50 | – | –
Fc1cc(F)cc(Nc2nc(NC3CC(F)(F)C3)nc(-n3ccc(C(F)(F)F)n3)n2)c1 [Compound 106] | < 50 | < 50 | 100 to 1000 | –
FC1(F)CCC(Nc2nc(NC3CCC(F)(F)CC3)nc(-n3ccc(C(F)(F)F)n3)n2)CC1 [Compound 176] | < 50 | < 50 | 100 to 1000 | –
FC1(F)CCC(Nc2nc(NC3Cc4ccccc4C3)nc(-c3cccc(C(F)(F)F)n3)n2)C1 (stereo not drawn) [Compound 152] | < 50 | < 50 | – | –
Fc1cc(F)cc(Nc2nc(NC3CCC(F)(F)C3)nc(-c3cccc(C(F)(F)F)n3)n2)c1 (stereo not drawn) [Compound 123] | < 50 | < 50 | 100 to 1000 | –
N#CC1(c2cc(Nc3nc(NCC(F)(F)F)nc(-c4cccc(C(F)(F)F)n4)n3)ccn2)CC1 [Compound 226] | < 50 | < 50 | – | –
N#CC1(c2cc(Nc3nc(NC4CC5(C4)CC(F)(F)C5)nc(-c4cccc(C(F)(F)F)n4)n3)ccn2)CC1 [Compound 229] | < 50 | < 50 | 100 to 1000 | –
FC1(F)CC[C@H](Nc2nc(Nc3ccnc(C(F)(F)F)c3)nc(-c3cncc(C(F)(F)F)n3)n2)C1 [Compound 391] | – | < 50 | 100 to 1000 | < 50

SMILES | IC50 [1, 2] [nM] | IC50 (IDH2 R140Q) [nM] | IC50 (HT1080 cells) [nM] | IC50 [1, 3] [nM]
N#Cc1cc(Nc2nc(NC3CCC(F)(F)C3)nc(-c3cccc(C(F)(F)F)n3)n2)ccn1 (stereo not drawn) [Compound 181] | < 50 | < 50 | 100 to 1000 | –
CC(C#N)Nc1nc(Nc2ccnc(C(C)(F)F)c2)nc(-c2cccc(C(F)(F)F)n2)n1 (stereo not drawn) [Compound 253] | 50 to 100 | < 50 | – | –
CC(CC#N)Nc1nc(N[C@H](C)C2CC2)nc(-c2cccc(C(F)(F)F)n2)n1 (stereo partly drawn) [Compound 214] | < 50 | < 50 | – | –
FC1(F)CCC(Nc2nc(NC3CCC(F)(F)CC3)nc(-c3cncc(Cl)n3)n2)CC1 [Compound 147] | < 50 | < 50 | 100 to 1000 | –
Clc1cccc(-c2nc(NC(C3CC3)C3CC3)nc(NC(C3CC3)C3CC3)n2)n1 [Compound 131] | < 50 | < 50 | – | –
FC1(F)CCC(Nc2nc(NC3CCC(F)(F)C3)nc(-n3ccc(C(F)(F)F)n3)n2)C1 (stereo not drawn) [Compound 146] | < 50 | < 50 | – | –
CC(Nc1nc(Nc2ccnc(C3(C#N)CC3)c2)nc(-c2cccc(Cl)n2)n1)C(F)(F)F (stereo not drawn) [Compound 134] | < 50 | < 50 | < 50 | –
N#CC1(c2cc(Nc3nc(NC4CCC(F)(F)C4)nc(-c4cccc(C(F)(F)F)n4)n3)ccn2)CC1 (stereo not drawn) [Compound 151] | < 50 | < 50 | – | –
N#CC1(c2cc(Nc3nc(NC4CC(F)(F)C4)nc(-c4cncc(C(F)(F)F)n4)n3)ccn2)CC1 [Compound 401] | – | < 50 | 100 to 1000 | < 50
FC1(F)CCC(Nc2nc(NC3CCC(F)(F)CC3)nc(-c3cncc(C(F)(F)F)n3)n2)CC1 [Compound 160] | < 50 | < 50 | < 50 | –
CC(C)(C)Nc1nc(Nc2ccnc(C#N)c2)nc(-c2cccc(C(F)(F)F)n2)n1 [Compound 162] | < 50 | < 50 | – | –
FC1(F)CCC(Nc2nc(NC3CCC(F)(F)CC3)nc(-c3nccc(C(F)(F)F)n3)n2)CC1 [Compound 293] | 100 to 1000 | 50 to 100 | – | –
N#CC1(c2cc(Nc3nc(NC4CCC(F)(F)CC4)nc(-c4cccc(C(F)(F)F)n4)n3)ccn2)CC1 [Compound 189] | < 50 | < 50 | 100 to 1000 | –
FC1(F)CCC(Nc2nc(Nc3ccnc(C(F)(F)F)c3)nc(-c3cccc(Cl)n3)n2)C1 (stereo not drawn) [Compound 115] | < 50 | < 50 | 100 to 1000 | –
FC1(F)CCC(Nc2nc(Nc3ccnc(C(F)(F)F)c3)nc(-c3cncc(C(F)(F)F)n3)n2)CC1 [Compound 389] | – | < 50 | 100 to 1000 | < 50

The next lines start with the values.

IC50 [1, 2] [nM] | IC50 (IDH2 R140Q) [nM] | IC50 (HT1080 cells) [nM] | IC50 [1, 3] [nM] | SMILES
< 50 | < 50 | – | – | FC1(F)CC(Nc2nc(NC3CC(F)(F)C3)nc(-c3csc(C(F)(F)F)n3)n2)C1 [Compound 170]
< 50 | < 50 | – | – | Fc1ccc([C@H]2C[C@@H](Nc3nc(NC4CCC(F)(F)C4)nc(-c4cccc(C(F)(F)F)n4)n3)C2)cc1 (stereo partly drawn) [Compound 199]
< 50 | < 50 | 50 to 100 | – | FC1(F)CC(Nc2nc(NC3CC(F)(F)C3)nc(-c3cccc(C(F)(F)F)n3)n2)C1 [Compound 149]
< 50 | < 50 | – | – | FC1(F)CCC(Nc2nc(NC3Cc4ccc(Cl)cc4C3)nc(-c3cccc(C(F)(F)F)n3)n2)C1 (stereo not drawn) [Compound 182]
< 50 | < 50 | 100 to 1000 | – | FC(F)c1cccc(-c2nc(NC3CC(F)(F)C3)nc(NC3CC(F)(F)C3)n2)n1 [Compound 145]
< 50 | < 50 | < 50 | – | N#CC1(c2cc(Nc3nc(NC4CC(F)(F)C4)nc(-c4cccc(C(F)(F)F)n4)n3)ccn2)CC1 [Compound 168]
< 50 | < 50 | 100 to 1000 | – | FC1(F)CCC(Nc2nc(NC3CCC(F)(F)C3)nc(-c3nccc(C(F)(F)F)n3)n2)C1 (stereo not drawn) [Compound 237]
< 50 | < 50 | – | – | CC(F)(F)c1cccc(-c2nc(NC3CC(F)(F)C3)nc(NC3CC(F)(F)C3)n2)n1 [Compound 187]
50 to 100 | < 50 | – | – | FC1(F)CCC(Nc2nc(NC3CCC(F)(F)C3)nc(-c3cccc(OC(F)(F)F)n3)n2)C1 (stereo not drawn) [Compound 252]
< 50 | < 50 | < 50 | – | FC1(F)CC(Nc2nc(NC3CC(F)(F)C3)nc(-c3cncc(C(F)(F)F)n3)n2)C1 [Compound 161]
< 50 | < 50 | 100 to 1000 | – | FC1(F)CCC(Nc2nc(NC3CC4(C3)CC(F)(F)C4)nc(-c3cccc(C(F)(F)F)n3)n2)C1 (stereo not drawn) [Compound 191]
< 50 | 100 to 1000 | – | – | FC1(F)CCC(Nc2nc(NC3CCN(c4ncccn4)C3)nc(-c3cccc(C(F)(F)F)n3)n2)C1 (stereo not drawn) [Compound 227]
< 50 | < 50 | < 50 | – | FC1(F)CC(Nc2nc(NC3CC(F)(F)C3)nc(-c3nc(C(F)(F)F)cs3)n2)C1 [Compound 128]
< 50 | < 50 | 100 to 1000 | – | FC(F)c1cccc(-c2nc(NC3CCC(F)(F)CC3)nc(NC3CCC(F)(F)CC3)n2)n1 [Compound 224]
< 50 | < 50 | – | – | N#Cc1cc(Nc2nc(NC3CC(F)(F)C3)nc(-c3cccc(C(F)(F)F)n3)n2)ccn1 [Compound 213]
< 50 | 100 to 1000 | – | – | FC1(F)CCC(Nc2nc(NC3CCN(c4ccccn4)C3)nc(-c3cccc(C(F)(F)F)n3)n2)C1 (stereo not drawn) [Compound 222]
< 50 | < 50 | – | – | FC1(F)CC(Nc2nc(NC3CC(F)(F)C3)nc(-n3ccc(C(F)(F)F)n3)n2)C1 [Compound 126]
100 to 1000 | < 50 | – | – | FC1(F)CC(Nc2nc(NC3CC(F)(F)C3)nc(-c3nccc(C(F)(F)F)n3)n2)C1 [Compound 256]
< 50 | < 50 | < 50 | – | CC(F)(F)c1cccc(-c2nc(NC3CCC(F)(F)C3)nc(NC3CCC(F)(F)C3)n2)n1 (stereo not drawn) [Compound 105]
